Measurements published in DBAASP.
Converted amounts (≈) assume the structure as drawn.

Key:
Experiment in all cases: ≥ marks a high value that may be exact or a test limit, other limits are often not marked, values filed in µg/mL are converted to µM
Escherichia coli O111 = system: Escherichia coli O111
Clostridium perfringens = system: Clostridium perfringens
[1] = system: Bacillus megaterium ATCC 9885
Neisseria meningitidis = system: Neisseria meningitidis
[2] = system: Salmonella typhimurium CIP 6062
Pseudomonas aeruginosa = system: Pseudomonas aeruginosa
Klebsiella pneumoniae = system: Klebsiella pneumoniae
Candida albicans = system: Candida albicans
Streptococcus pneumoniae = system: Streptococcus pneumoniae
[3] = system: Escherichia coli 363 ATCC 11775
[4] = system: Salmonella enterica subsp. enterica serovar Enteritidis
Listeria monocytogenes = system: Listeria monocytogenes
Vibrio cholerae = system: Vibrio cholerae
[5] = system: Staphylococcus haemolyticus
[6] = system: Enterobacter cloacae ATCC 11775
[7] = system: Staphylococcus aureus ATCC 25923
Saccharomyces cerevisiae = system: Saccharomyces cerevisiae
Salmonella typhimurium = system: Salmonella typhimurium
Escherichia coli B = system: Escherichia coli B
[8] = system: Arthrobacter globiformis VKM Ac-1112
[9] = system: Escherichia coli DH5alpha
Escherichia coli MH1 = system: Escherichia coli MH1
[10] = system: Pseudomonas aeruginosa PAO1
[11] = system: Bacillus subtilis VKM B-501
[12] = system: Saccharomyces cerevisiae Y190
[13] = system: Acinetobacter baumannii NM8
[14] = system: Acinetobacter baumannii Ab1408
[15] = system: Acinetobacter baumannii Ab5753
[16] = system: Pseudomonas aeruginosa Pa1409
[17] = system: Acinetobacter baumannii NM35
[18] = system: Acinetobacter baumannii Ab5755
[19] = system: Pseudomonas aeruginosa Pa4216
[20] = system: Candida albicans ATCC 90028
[21] = system: Escherichia coli ATCC 25726
Escherichia coli Ec513 = system: Escherichia coli Ec513
[22] = system: Klebsiella pneumoniae ATCC 700603
[23] = system: Staphylococcus aureus Sa1390
[24] = system: Pseudomonas aeruginosa ATCC 27853
[25] = system: Acinetobacter baumannii NM124

MIC (Clostridium perfringens)	MIC [1]	MIC (Neisseria meningitidis)	MIC [2]	MIC (Pseudomonas aeruginosa)	MIC (Klebsiella pneumoniae)	MIC (Candida albicans)	MIC (Streptococcus pneumoniae)	MIC [3]	MIC [4]	MIC (Listeria monocytogenes)	MIC [6]	MIC [7]	MIC (Saccharomyces cerevisiae)	MIC [8]	MIC [9]	MIC (Escherichia coli MH1)	MIC [10]	SMILES	MIC (Vibrio cholerae)	MIC [5]	other results
																		CC[C@H](C)[C@H](NC(=O)[C@H](CO)NC(=O)[C@@H]1CCCN1C(=O)[C@H](C)NC(=O)CNC(=O)[C@H](CC(C)C)NC(=O)[C@H](CCCCN)NC(=O)[C@H](CCCN=C(N)N)NC(=O)[C@H](CCSC)NC(=O)[C@H](CCCN=C(N)N)NC(=O)[C@H](CCCN=C(N)N)NC(=O)[C@H](CCC(N)=O)NC(=O)[C@H](Cc1c[nH]c2ccccc12)NC(=O)[C@H](CCC(N)=O)NC(=O)[C@@H](N)Cc1ccc(O)cc1)C(=O)N[C@H](C(=O)O)[C@@H](C)O [YQWQRRMRKLGAPSIT]			MIC (Escherichia coli O111): ≥ 100 µM
25 µM (≈ 53.6 µg/mL)	3.15 µM (≈ 6.76 µg/mL)	25 µM (≈ 53.6 µg/mL)	12.6 µM (≈ 26.9 µg/mL)	1.5 µM (≈ 3.22 µg/mL)	3.1 µM (≈ 6.65 µg/mL)	12.5 µM (≈ 26.8 µg/mL)	3.1 µM (≈ 6.65 µg/mL)	6.25 µM (≈ 13.4 µg/mL)	1.5 µM (≈ 3.22 µg/mL)	12.5 µM (≈ 26.8 µg/mL)	12.6 µM (≈ 26.9 µg/mL)	6.25 µM (≈ 13.4 µg/mL)	12.5 µM (≈ 26.8 µg/mL)					CC[C@H](C)[C@H](NC(=O)[C@H](CC(C)C)NC(=O)[C@H](CO)NC(=O)[C@@H](NC(=O)[C@@H](NC(=O)[C@H](CC(C)C)NC(=O)CN)C(C)C)[C@@H](C)O)C(=O)N[C@@H](CCCCN)C(=O)NCC(=O)N[C@@H](C)C(=O)NCC(=O)N[C@@H](CCCCN)C(=O)N[C@@H](CC(C)C)C(=O)N[C@@H](CC(C)C)C(=O)NCC(=O)NCC(=O)N[C@@H](CC(C)C)C(=O)N[C@@H](Cc1ccccc1)C(=O)NCC(=O)N[C@@H](CO)C(=O)N[C@H](C(=O)N[C@H](C(=O)NCC(N)=O)[C@@H](C)O)C(C)C [GLVTSLIKGAGKLLGGLFGSVTG]	6.25 µM (≈ 13.4 µg/mL)	6.25 µM (≈ 13.4 µg/mL)	
≥ 100 µM	≥ 50.2 µM	≥ 50 µM	25.2 µM (≈ 57.1 µg/mL)	3.1 µM (≈ 7.01 µg/mL)	6.25 µM (≈ 14.1 µg/mL)	50 µM (≈ 113 µg/mL)	12.5 µM (≈ 28.2 µg/mL)	6.25 µM (≈ 14.1 µg/mL)	3.1 µM (≈ 7.01 µg/mL)	≥ 50 µM	12.5 µM (≈ 28.2 µg/mL)	6.25 µM (≈ 14.1 µg/mL)	≥ 100 µM					CC(C)C[C@H](NC(=O)[C@H](CC(C)C)NC(=O)[C@H](CCCCN)NC(=O)CNC(=O)[C@H](C)NC(=O)[C@@H](NC(=O)[C@H](CCCCN)NC(=O)[C@H](CC(C)C)NC(=O)[C@H](CC(C)C)NC(=O)[C@H](CC(=O)O)NC(=O)[C@@H](NC(=O)[C@@H](NC(=O)[C@@H](NC(=O)CN)C(C)C)C(C)C)[C@@H](C)O)[C@@H](C)O)C(=O)NCC(=O)N[C@@H](CC(N)=O)C(=O)N[C@@H](CC(C)C)C(=O)N[C@@H](Cc1ccccc1)C(=O)NCC(=O)N[C@@H](CO)C(=O)N[C@@H](CC(C)C)C(=O)N[C@@H](CO)C(=O)NCC(N)=O [GVVTDLLKTAGKLLGNLFGSLSG]	25 µM (≈ 56.5 µg/mL)	≥ 50 µM	MIC (Salmonella typhimurium): 6.25 µM (≈ 14.1 µg/mL); MIC (Escherichia coli B): 12.5 µM (≈ 28.2 µg/mL)
														0.7 µM (≈ 1.7 µg/mL)	23 µM (≈ 55.8 µg/mL)	28 µM (≈ 67.9 µg/mL)	> 45 µM	CSCC[C@H](NC(=O)[C@H](CO)NC(=O)[C@H](C)NC(=O)[C@H](Cc1c[nH]c2ccccc12)NC(=O)[C@@H](N)CO)C(=O)N[C@@H](C)C(=O)N[C@@H](CCCCN)C(=O)N[C@@H](CCCCN)C(=O)N[C@@H](CC(C)C)C(=O)N[C@@H](CCCCN)C(=O)N[C@@H](CCC(=O)O)C(=O)N[C@@H](Cc1ccc(O)cc1)C(=O)N[C@@H](CCSC)C(=O)N[C@@H](CCC(=O)O)C(=O)N[C@@H](CCCCN)C(=O)N[C@@H](CC(C)C)C(=O)N[C@@H](CCCCN)C(=O)N[C@@H](CCC(N)=O)C(=O)N[C@@H](CCCN=C(N)N)C(=O)N[C@@H](C)C(N)=O [SWASMAKKLKEYMEKLKQRA]			MIC [11]: 2.9 µM (≈ 7.04 µg/mL); MIC [12]: 23 µM (≈ 55.8 µg/mL)
												250 µM (≈ 566 µg/mL)						CC[C@H](C)[C@H](NC(=O)CNC(=O)[C@H](CCCCN)NC(=O)[C@@H](NC(=O)[C@H](CC(C)C)NC(=O)[C@H](CO)NC(=O)CNC(=O)[C@H](CC(C)C)NC(=O)CNC(=O)[C@H](C)NC(=O)[C@H](CCCCN)NC(=O)[C@H](Cc1ccccc1)NC(=O)[C@@H](NC(=O)[C@H](CCCCN)NC(=O)[C@H](CCCCN)NC(=O)[C@H](CC(C)C)NC(=O)CN)[C@@H](C)CC)C(C)C)C(=O)N[C@@H](C)C(=O)N[C@@H](C)C(=O)N[C@@H](Cc1cnc[nH]1)C(=O)N[C@H](C(=O)N[C@@H](C)C(=O)N[C@@H](CO)C(N)=O)C(C)C [GLKKIFKAGLGSLVKGIAAHVAS]			MIC [13]: 2.5 µM (≈ 5.66 µg/mL); MIC [14]: 28.2 µM (≈ 64 µg/mL); MIC [15]: 28.2 µM (≈ 64 µg/mL); MIC [16]: ≥ 56.5 µM; MIC [17]: 5 µM (≈ 11.3 µg/mL); MIC [18]: 3.53 µM (≈ 8 µg/mL); MIC [19]: 28.2 µM (≈ 64 µg/mL); MIC [20]: 20 µM (≈ 45.3 µg/mL); MIC [21]: 5 µM (≈ 11.3 µg/mL); MIC (Escherichia coli Ec513): 14.1 µM (≈ 32 µg/mL); MIC [22]: 12.5 µM (≈ 28.3 µg/mL); MIC [23]: ≥ 56.5 µM; MIC [24]: 6 µM (≈ 13.6 µg/mL); MIC [25]: 1.25 µM (≈ 2.83 µg/mL)
														0.3 µM (≈ 0.865 µg/mL)	4.4 µM (≈ 12.7 µg/mL)	4.4 µM (≈ 12.7 µg/mL)	> 35 µM	CC[C@H](C)[C@H](NC(=O)[C@H](Cc1ccc(O)cc1)NC(=O)[C@H](CCC(N)=O)NC(=O)[C@H](CCCCN)NC(=O)[C@H](CC(C)C)NC(=O)[C@H](CCCCN)NC(=O)[C@H](CCC(=O)O)NC(=O)CNC(=O)[C@H](CCSC)NC(=O)[C@H](CO)NC(=O)[C@H](CCCCN)NC(=O)[C@@H](NC(=O)[C@H](CCCCN)NC(=O)[C@H](CC(=O)O)NC(=O)[C@H](CCCCN)NC(=O)[C@H](CC(C)C)NC(=O)[C@@H](N)CO)C(C)C)C(=O)N[C@@H](CCC(N)=O)C(=O)N[C@H](C(=O)N[C@@H](Cc1c[nH]c2ccccc12)C(=O)N[C@@H](CCCCN)C(=O)N[C@@H](C)C(=O)N[C@@H](CCCCN)C(=O)N[C@@H](Cc1ccccc1)C(N)=O)[C@@H](C)O [SLKDKVKSMGEKLKQYIQTWKAKF]			MIC [11]: 1.1 µM (≈ 3.17 µg/mL); MIC [12]: ≥ 35 µM
